Structures are written as SMILES.

In turn, `O=c1[nH]c(=Cc2ccc(OCc3ccccc3)cn2)c(=O)[nH]c1=Cc1ccc(OCc2ccccc2)cn1` [Compound 10, 3,6-di[(5-phenylmethoxypyridin-2-yl)methylidene]piperazine-2,5-dione] came in with a melting point of 283 to 328 °C. The compound `O=c1[nH]c(=Cc2ccc(OCc3ccccc3)cn2)c(=O)[nH]c1=Cc1ccccn1` [Compound 9, 3-[(5-benzyloxypyridin-2-yl)methylidene]-6-[(2-pyridinyl)methylidene]piperazine-2,5-dione] came in with a melting point of 248 to 250 °C. Take `O=c1[nH]c(=Cc2ccco2)c(=O)[nH]c1=Cc1ccc(OCc2ccccc2)cn1` [Compound 7, 3-[(5-benzyloxypyridin-2-yl)methylidene]-6-[(furan-2-yl)methylidene]piperazine-2,5-dione]: the melting point lay in the range of 256 to 257 °C.

With `CC(=O)N1CC(=O)NC(Cc2ccc(OCc3ccccc3)cn2)C1=O` (centres unmarked) [Compound 12, 1-acetyl-3-[(5-benzyloxypyridin-2-yl)methyl]piperazine-2,5-dione], the melting point lay within 215 to 216 °C. The compound `O=C1NC(Cc2ccc(OCc3ccccc3)cn2)C(=O)NC1Cc1ccc(OCc2ccccc2)cn1` (centres unmarked) [Compound 13, 3,6-di[(5-benzyloxypyridin-2-yl)methyl]piperazine-2,5-dione] yielded a melting point of 228 to 231 °C.

(Values after patent US6635649B2, “Piperazinedione compounds” (priority 2000, dated 2003).)
